Assay results published in paper doi:10.1101/2025.03.14.643404, “A Bivalent Molecular Glue Linking Lysine Acetyltransferases to Oncogene-induced Cell Death” (bioRxiv, 2025).

Legend:
[1] = tested on: BCL6-repressed GFP reporter; assay: BCL6 reporter assay (BCL6-repressed GFP) in K422 cells; format: cell-based, human; conditions: 24 h, highest GFP signal
Procedure: KARPAS422 cells were lentivirally transduced with a construct containing the reporter. Description of the reporter construct has been published previously. After selection, cells were plated and treated with indicated amount of compound for 24 hours. Cells were washed in 2.5% FBS/PBS, stained with 1:250 v/v of 7-AAD (BD 559925) to distinguish live from dead cells, and harvested for flow cytometry on a BD Accuri. Given the polyclonal population after transduction, the area under the curve of the histogram representing FITC signal across all live cells was calculated as an integrative measure of total GFP signal. A GFP-positive gate two standard deviations from the mean was drawn from non-transduced cells and the area past a constant threshold was calculated and normalized to the signal from cells treated with DMSO.

[2] = tested on: SUDHL5 cells; assay: Cell viability, 72 h compound treatment (PrestoBlue), SUDHL5; format: cell-based, human; conditions: SUDHL5, 72 h
Procedure: Thirty thousand cells were seeded in 100 μl of media per well of a 96-well plate and treated with drug for the indicated times and doses. A resazurin-based indicator of cell health (PrestoBlue; P50200, Thermo Fisher) was added for 1.5 h at 37°C, at which point the fluorescence ratio at 560/590 nm was recorded (Tecan Spark). The background fluorescence was subtracted, and the signal was normalized to DMSO-treated cells. IC50 measurements on cell lines were calculated using at least three biological replicates (separate cell passages). Fit of dose–response curves to data and statistical analysis was performed using GraphPad PRISM using the four-parameter log(inhibitor) vs response function.

[3] = tested on: p300^BD-BCL6^BTB; assay: TR-FRET ternary assay p300BD-BCL6BTB; format: binding, human
Procedure: 10 μL reactions containing 10 nM 6x-His- p300^BD or 6x-His-CBP^BD, 200 nM BiotinylatedAvi-BCL6^BTB, 20 nM streptavidin-FITC (SA1001, Thermo), and 1:400 anti-6x-His-terbium (PerkinElmer 61HI2TLF) in buffer containing 20 mM HEPES pH 7.5, 150 mM NaCl, 0.1% BSA, 0.1% NP-40, and 1 mM TCEP were plated in low-volume 384 well plates. Drugs were digitally dispensed (Tecan D300e) into protein-containing wells, and the plate was allowed to incubate in the dark for 1 hour at room temperature. Emission at 490 nm (terbium) and 520 nm (FITC) was measured on a PHERAstar FS plate reader (BMG Labtech) upon excitation with 337 nm. The ratio of signal at 520 nm to 490 nm was calculated and normalized to DMSO-treated protein.

[4] = tested on: SUDHL5 cells; assay: RNA-seq differential genes in SUDHL5; format: cell-based, human; conditions: SUDHL5, 1 nM, 30 min, 1, 2 and 4 hours; adj. P ≤ 0.05, |log2(fold change)| ≥ 0.5
Procedure: Cells were plated at 1M/mL and harvested in TRIsure (Bioline 38033). RNA was extracted using Direct-zol RNA MicroPrep columns (Zymo R2062) treated with DNAseI. cDNA was prepared (Meridian Bioscience BIO-65054) and used for qPCR (Meridian Bioscience BIO-94050) using an AppliedBiosystems QuantStudio 6Pro. Primer sequences were the following:
For sequencing library preparation, rRNA was depleted (NEB E7400) and total RNA prepared into paired-end libraries (NEB E7765) and indexed (NEB E7335). Library size distributions were confirmed using an Agilent Bioanalyzer and High Sensitivity DNA reagents (Agilent 5067) and concentrations determined by qPCR. […]
Raw reads were checked for quality using fastqc (https://www.bioinformatics.babraham.ac.uk/projects/fastqc/) and trimmed from adapters using cutadapt[111] using parameters cutadapt -a […] -b […] --nextseq-trim=20 --minimum-length 1. Transcripts were quantified using kallisto[112] against the human Gencode v33 indexed transcriptome and annotations. […] Re-processed published datasets from the Sequence Read Archive (SRA) were the following: TCIP1 – SRX20228454, SRX20228455, SRX202284546, SRX20228457, SRX20228458, SRX20228459, SRX20228448, SRX20228449, SRX20228450; CDK-TCIP1 – SRX22117221, SRX22117222, SRX22117223, SRX22117224, SRX22117225, SRX22117226, SRX22117227, SRX22117228, SRX22117229).

[5] = tested on: SUDHL5 cells; assay: Annexin V staining of SUDHL5; format: cell-based, human
Procedure: 25,000 cells were plated in 200 μL of media in 96 well U-bottom plates and treated with compound. […] Centrifugation and washing was repeated once more. Cells were then resuspended in 50 μL cold binding buffer (10 mM HEPES pH 7.4, 140 mM NaCl, 2.5 mM CaCl2) and 2.5 μL FITC-Annexin-V (Biolegend 640922). A no-stain control was also included to draw gates. The plate was allowed to incubate for 15 minutes at room temperature, at which point 100 μL of 2.5% FBS in PBS was added to each well. The plate was gently agitated through shaking, and samples were analyzed by flow cytometry on a BD Accuri. At least 50k events were collected per sample.

- IC50 ([2]; Homo sapiens, SU-DHL-5, read-out: IC50 cell viability / antiproliferation): 0.8 nM
- IC50 cell viability / antiproliferation [2]: sub-nanomolar
SMILES: CNC(=O)COc1cc2cc(Nc3nc(N4CCC(C(=O)N5CCN(CCC(=O)N6CCC(n7nc(N8CCCc9cc(-c%10cnn(C)c%10)c(C(F)F)cc98)c8c7CCN(C(=O)NC)C8)CC6)CC5)CC4)ncc3Cl)cc(OC)c2n(C)c1=O [TCIP3]
- GFP signal relative to DMSO treatment [1]: 10 times
- times more cytotoxic than either NEG1 or NEG2 [2]: over 1,000 times
- times more potent than A-485 [2]: 238 times
- times more potent than dCBP-1 [2]: 12 times
- TR-FRET signal AUC, times higher than NEG1 [3]: 23 times
- TR-FRET signal AUC, times higher than NEG2 [3]: 18 times
- number of genes decreased [4]: 2,126
- number of genes induced [4]: 1,510
- Annexin V-positive cells, times higher than DMSO ([5]; SUDHL5, 10 nM, 72 hours): 2.9 times
- Annexin V-positive cells, times higher than NEG1 ([5]; SUDHL5, 10 nM, 72 hours): 2.3 times
- Annexin V-positive cells, times higher than NEG2 ([5]; SUDHL5, 10 nM, 72 hours): 2.5 times
- cells stained positive for Annexin V ([5]; SUDHL5, 10 nM, 72 hours): 82%
- induction of apoptosis ([5]; SUDHL5, 24, 48, 72 hours): significant increases in Annexin V-positive cells began after 48 hours
